Earlier results in patent US9446036B2, “Compositions of a polyorthoester and an aprotic solvent” (Heron Therapeutics, Inc., priority 2013, dated 2016).

Settings: room temperature (20-25° C.)

Water Miscibility | Structure (SMILES)
water miscible | CC1COC(=O)O1 (centres unmarked) [4-methyl-1,3-diololan-2-one]
water miscible | CCOC(=O)C(C)O (centres unmarked) [ethyl lactate]
water miscible | C[S+](C)[O-] [dimethyl sulfoxide]
partially miscible | CCOC(C)=O [ethyl acetate]
water miscible | CCN1CCCC1=O [n-ethyl-2-pyrrolidone]

Further lines, the molecule ahead of its results:

Structure (SMILES) | Water Miscibility
CN1CCCC1=O [N-methyl-2-pyrrolidone (NMP), N-methyl-2-pyrrolidone] | water miscible
COC(=O)C(C)O (centres unmarked) [methyl lactate] | water miscible
O=C1CCCN1C1CCCCC1 [N-cyclohexyl-2-pyrrolidone] | poorly miscible
O=C(OCc1ccccc1)c1ccccc1 [benzyl benzoate] | poorly miscible
CCCCCCCC/C=C\CCCCCCCC(=O)OCC [ethyl oleate] | poorly miscible
CCCCCCCCCCCCCC(=O)OC(C)C [isopropyl myristate] | poorly miscible
COC(C)=O [methyl acetate] | water miscible
C1CCOC1 [tetrahydrofuran] | water miscible
O=C1CCCCCO1 [ester-caprolactone] | water miscible
